The values that follow come from paper PMC7085114 (Biochemistry, 2020).

“Also recorded” adds a separate entry of the source. Read-outs that look alike come from different tables or passages of the source.

The IC50 is the concentration needed to halve the response being measured. For orientation: Ki means a measure of affinity in units of concentration, obtained from inhibition or displacement. In general, Km refers to the concentration of substrate that gives half-maximal velocity. For orientation: kcat means the number of substrate molecules converted per active site and unit of time at saturation.

Test [1] has as its target T1, SARM1 TIR domain (Homo sapiens, UniProt Q6SZW1).
T1 sequence (Q6SZW1 561-724): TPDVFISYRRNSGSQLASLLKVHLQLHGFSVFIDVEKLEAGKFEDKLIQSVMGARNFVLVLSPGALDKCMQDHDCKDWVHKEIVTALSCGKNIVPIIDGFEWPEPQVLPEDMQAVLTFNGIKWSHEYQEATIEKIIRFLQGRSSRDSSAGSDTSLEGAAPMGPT
Briefly: Continuous fluorescent ENAD hydrolysis assay, SARM1 TIR domain in lysate. In kind it is biochemical. Conditions: for Inhibition of SARM1 (in words): 0 – 1 mM analog, ENAD 50 μM.

A further test deals with T2, full length SARM1 (Homo sapiens, UniProt Q6SZW1).
T2 sequence (Q6SZW1 28-724): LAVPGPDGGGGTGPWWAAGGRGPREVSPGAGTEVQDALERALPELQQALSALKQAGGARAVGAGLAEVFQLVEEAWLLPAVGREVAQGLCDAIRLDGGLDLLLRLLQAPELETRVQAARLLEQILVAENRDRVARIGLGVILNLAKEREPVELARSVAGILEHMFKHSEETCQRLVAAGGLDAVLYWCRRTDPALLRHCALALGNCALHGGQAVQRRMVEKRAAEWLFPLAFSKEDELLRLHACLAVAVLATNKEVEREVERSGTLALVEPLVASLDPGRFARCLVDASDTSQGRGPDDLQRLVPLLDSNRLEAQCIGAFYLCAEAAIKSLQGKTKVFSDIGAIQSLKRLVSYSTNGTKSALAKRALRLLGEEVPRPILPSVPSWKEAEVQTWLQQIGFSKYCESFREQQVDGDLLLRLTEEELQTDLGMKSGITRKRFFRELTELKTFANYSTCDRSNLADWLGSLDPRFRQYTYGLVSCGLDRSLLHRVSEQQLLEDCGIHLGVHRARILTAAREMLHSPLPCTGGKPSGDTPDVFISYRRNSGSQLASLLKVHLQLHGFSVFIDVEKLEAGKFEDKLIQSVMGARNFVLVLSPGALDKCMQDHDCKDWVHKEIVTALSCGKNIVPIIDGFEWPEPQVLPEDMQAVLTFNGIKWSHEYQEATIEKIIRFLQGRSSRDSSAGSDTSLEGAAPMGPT
The settings on record: Full length SARM1, substrate ENAD.

The next test deals with T3, SARM1 SAM^1–2TIR domains (Homo sapiens, UniProt Q6SZW1).
T3 sequence (Q6SZW1 412-724): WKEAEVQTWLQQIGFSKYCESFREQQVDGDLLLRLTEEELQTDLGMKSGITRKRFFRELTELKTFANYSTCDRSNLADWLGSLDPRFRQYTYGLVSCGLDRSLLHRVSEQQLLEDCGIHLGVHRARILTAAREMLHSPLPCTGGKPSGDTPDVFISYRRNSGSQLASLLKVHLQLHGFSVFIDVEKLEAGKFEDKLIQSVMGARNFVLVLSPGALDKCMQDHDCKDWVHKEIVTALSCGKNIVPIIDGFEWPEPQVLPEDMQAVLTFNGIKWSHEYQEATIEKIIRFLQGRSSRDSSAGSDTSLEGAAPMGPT
The settings on record: SAM TIR construct, substrate ENAD.

Test [2] has as its target T1, SARM1 TIR domain. As to the kind of experiment: Luminescent NNMT-coupled NAD+ hydrolysis assay. In kind it is biochemical. Conditions: TIR domain on affinity beads, substrate NAD^+.
A further test has as its target CD38. Conditions: cited from earlier work.
The next test has as its system Sir2. The settings on record: ref [24]–[27]; cited from earlier work.
Where [3] appears, read: 300 nM SARM1, ENAD 0 – 400 μM varied.
Setting [4] is: 2 mM metal or EDTA, 300 nM SARM1, 200 μM ENAD.

On to `O[C@@H](CS)[C@@H](O)CS` (racemic) [DTT, dithiothreitrol], for which the “Effect of reducing agents on SARM1 activity” value on SARM1 TIR domain [1] (0 – 2 mM reducing agent, 100 μM ENAD) is listed as “Neither DTT nor TCEP altered SARM1 activity”.

For the compound `NC(=O)c1cnccc1Cl` [4–CN, 4–chloronicotinamide], at SARM1 TIR domain [1], the IC50 was 640 ± 40 µM, the Ki was found to be 700 ± 30 µM and the “Inhibition of SARM1 (in words)” value is listed as “inhibit SARM1”. In addition, the “Pattern (mechanism) of inhibition” value on SARM1 TIR domain [1] (setting [3]) is reported as “noncompetitive”. Moreover, at SARM1 TIR domain [1] (300 nM SARM1, ENAD 0 – 400 μM varied, listed as 4-Chloronicotinamide), the “Pattern (mechanism) of inhibition” value was “noncompetitively”.

With `NC(=O)c1ccc(Cl)nc1` [6-CN, 6–chloronicotinamide], the “Inhibition of SARM1 (in words)” value at SARM1 TIR domain [1] is “inhibit SARM1”.

Regarding `Nc1ncnc2c1ncn2[C@@H]1O[C@H](COP(=O)(O)OP(=O)(O)OC[C@H]2OC(O)[C@H](O)[C@@H]2O)[C@@H](O)[C@H]1O` (stereo partly shown) [ADPR, ADP Ribose], at SARM1 TIR domain [1] (setting [3]), the Ki turned out to be 90 ± 10 µM and the “Pattern (mechanism) of inhibition” value is “competitive; also recorded: competitively”.

For `[Ca+2].[Cl-].[Cl-]` [CaCl2], the “Effect of divalent metal ions and EDTA on SARM1 catalysis” value (“Effect of divalent metal ions and EDTA” below) on SARM1 TIR domain [1] (setting [4]) was “only Ni^2+ and Zn^2+ inhibit SARM1”.

Regarding `[Cl][Cd][Cl]` [CdCl2], the “Effect of divalent metal ions and EDTA” value on SARM1 TIR domain [1] was “only Ni^2+ and Zn^2+ inhibit SARM1”.

With `[Cl-].[Cl-].[Co+2]` [CoCl2], the “Effect of divalent metal ions and EDTA” value at SARM1 TIR domain [1] was “only Ni^2+ and Zn^2+ inhibit SARM1”.

For `[Cl][Cu][Cl]` [CuCl2], on SARM1 TIR domain [1] (setting [4]), the “Effect of divalent metal ions and EDTA” value was “only Ni^2+ and Zn^2+ inhibit SARM1”.

For the compound `O=C(O)CN(CCN(CC(=O)O)CC(=O)O)CC(=O)O` [EDTA, ethylenediaminetetraacetic acid], on SARM1 TIR domain [1] (setting [4]), the “Effect of divalent metal ions and EDTA” value is “lack of an effect”.

As to `NC(=O)c1ccc[n+]([C@@H]2O[C@H](COP(=O)([O-])OP(=O)(O)OC[C@H]3O[C@@H](n4cnc5c4ncn4ccnc54)[C@H](O)[C@@H]3O)[C@@H](O)[C@H]2O)c1` [ENAD, Nicotinamide 1, N^6–ethenoadenine dinucleotide], the results for the Michaelis-Menten constant (Km) at SARM1 TIR domain [1], on full length SARM1 and at SARM1 SAM^1–2TIR domains were 35 ± 10 µM, 70 ± 20 µM and 130 ± 20 µM, respectively. For the same compound, the kcat on SARM1 TIR domain [1] (TIR domain, substrate ENAD, fluorescent assay) turned out to be 0.06 ± 0.03 s⁻¹; at full length SARM1 it was 0.40 ± 0.04 s⁻¹; on SARM1 SAM^1–2TIR domains, 0.12 ± 0.02 s⁻¹.

Consider `[Cl-].[Cl-].[Mg+2]` [MgCl2], for which the “Effect of divalent metal ions and EDTA” value on SARM1 TIR domain [1] (setting [4]) was “only Ni^2+ and Zn^2+ inhibit SARM1”.

With `[Cl][Mn][Cl]` [MnCl2], the “Effect of divalent metal ions and EDTA” value on SARM1 TIR domain [1] (setting [4]) was “only Ni^2+ and Zn^2+ inhibit SARM1”.

Turning to `NC(=O)c1ccc[n+]([C@@H]2O[C@H](COP(=O)([O-])OP(=O)(O)OC[C@H]3O[C@@H](n4cnc5c(N)ncnc54)[C@H](O)[C@@H]3O)[C@@H](O)[C@H]2O)c1` [NAD^+], on SARM1 TIR domain [2], the Michaelis-Menten constant (Km) stood at 28 ± 6 µM and the kcat came to 0.21 ± 0.03 s⁻¹.

On to `[Cl][Ni][Cl]` [Ni^2+, NiCl2], for which the “Effect of divalent metal ions and EDTA” value on SARM1 TIR domain [1] is “inhibit SARM1”. Moreover, the IC50 at SARM1 TIR domain [1] (read-out: IC50 of metal ion inhibition of SARM1) was 600 ± 100 µM.

Regarding `O=C(O)CCP(CCC(=O)O)CCC(=O)O` [TCEP, tris(2–carboxyethyl)phosphine], the “Effect of reducing agents on SARM1 activity” value on SARM1 TIR domain [1] is listed as “Neither DTT nor TCEP altered SARM1 activity”.

For `[Cl-].[Cl-].[Zn+2]` [Zn^2+, ZnCl2], the “Effect of divalent metal ions and EDTA” value on SARM1 TIR domain [1] (setting [4]) was “inhibit SARM1”.

On to `NC(=O)c1cccnc1` [nicotinamide], for which, at CD38 (ref [23]), the inhibitory constant (Ki) was 7.1 mM. Moreover, the figures for the Pattern of inhibition result in the test with CD38 (ref [24]–[27]) and in the test with Sir2 were “mixed inhibition” and “noncompetitive”, respectively.
